Data on four molecules can be found in publication PMC7647112, “The SiaABC threonine phosphorylation pathway controls biofilm formation in response to carbon availability in Pseudomonas aeruginosa” (PLoS ONE, 2020).

Assay [1] addresses T1, SiaA-PP2C (Pseudomonas aeruginosa, UniProt Q9I6W0).
T1 construct: gene PA0172; C-terminal PP2C phosphatase domain, residues 386-663, His-tagged (pNIC vectors), E. coli BL21(DE3) Rosetta; ~33 kDa monomer, homodimer (66 kDa by SEC)
The experiment in a line: pNPP phosphatase assay, absorbance […] nm. Format: biochemical. The conditions noted are these: read-out: % activity remaining at 0.1 mM fumonisin B1.

Assay [2] addresses T1, SiaA-PP2C. The experiment in a line: pNPP phosphatase assay, absorbance […] nm. The class given is biochemical. The conditions noted are these: 20 mM MgCl2, 20 mM Tris-HCl pH 7.5, 150 mM NaCl, 37°C; 0.5-5 mM pNPP.
Assay [3] has as its target C-terminal part of SiaA including the PP2C-like phosphatase domain (SiaA-PP2C, amino acids 386-663) (Pseudomonas aeruginosa). The experiment in a line: SEC; size-exclusion chromatography of SiaA-PP2C alone; elution compared with markers. For orientation: In gel filtration, larger molecules generally elute earlier.
The target in assay [4] is SiaC (Pseudomonas aeruginosa). The experiment in a line: SEC; SiaB and SiaC mixed in equal molar ratio, incubated at room temperature for 1 h, without ATP and MgCl2; Hiload 16/600 Superdex 200; peaks analysed by SDS-PAGE.

In general, remaining activity refers to what remains of the control signal, in per cent. In general, stoichiometry N refers to the number of molecules, sites or subunits per partner or assembly.

Regarding `CCCC[C@@H](C)[C@@H](OC(=O)C[C@@H](CC(=O)O)C(=O)O)[C@H](C[C@@H](C)C[C@H](O)CCCC[C@@H](O)C[C@H](O)[C@H](C)N)OC(=O)C[C@@H](CC(=O)O)C(=O)O` [fumonisin B1], the remaining activity at 100 µM in assay [1] stood at 35.5%.
In the case of `O=[N+]([O-])c1ccc(OP(=O)(O)O)cc1` [para-nitrophenyl phosphate], the “pNPP phosphatase assay, absorbance 405 nm” value in assay [2] is recorded as “phosphatase activity of SiaA-PP2C was assessed using para-nitrophenyl phosphate (pNPP)”.
“C-terminal part of SiaA including the PP2C-like phosphatase domain (SiaA-PP2C, amino acids 386-663) (domain or fragment)” showed a stoichiometry N in assay [3] of 2.
Turning to SiaB (enzyme), in assay [4], the stoichiometry N (SiaB:SiaC (2:2 complex)) is 1.
